In ChEMBL document CHEMBL3046123, “Molecular bases for resistance to acetyl-coenzyme A carboxylase inhibitor in Japanese foxtail (Alopecurus japonicus)” (Pest Manag Sci, 2012):

Tests used:
Alopecurus japonicus [1] = assay: Herbicidal activity against haloxyfop-R-methyl-resistant Alopecurus japonicus (Japanese foxtail) biotype Js-R assessed as inhibition of shoot length after 14 days; type: functional
Alopecurus japonicus [2] = assay: Herbicidal activity against haloxyfop-R-methyl-sensitive Alopecurus japonicus (Japanese foxtail) biotype Js-S assessed as inhibition of shoot length after 14 days; type: functional
Alopecurus japonicus [3] = assay: Resistance index, ratio of ED50 for haloxyfop-R-methyl-resistant Alopecurus japonicus (Japanese foxtail) biotype Js-R to ED50 for haloxyfop-R-methyl-sensitive Alopecurus japonicus (Japanese foxtail) biotype Js-S; type: functional
ACCase [4] = molecular target: T1, ACCase (Alopecurus japonicus, UniProt H9BT73); assay: Inhibition of Acetyl-CoA carboxylase (ACCase) in haloxyfop-R-methyl-resistant Alopecurus japonicus (Japanese foxtail) biotype Js-R shoot extracts; conditions: read-out: I50
[5] = molecular target: ACCase (Alopecurus japonicus) (UniProt H9BT73); assay: Resistance index, ratio of I50 for ACCase in haloxyfop-R-methyl-resistant Alopecurus japonicus (Japanese foxtail) biotype Js-R to I50 for Acetyl-CoA carboxylase (ACCase) in haloxyfop-R-methyl-sensitive Alopecurus japonicus (Japanese foxtail) biotype Js-S
ACCase [6] = molecular target: T1, ACCase; assay: Inhibition of Acetyl-CoA carboxylase (ACCase) in haloxyfop-R-methyl-sensitive Alopecurus japonicus (Japanese foxtail) biotype Js-S shoot extracts; conditions: read-out: I50

Row | Compound | ED50 (Alopecurus japonicus [1]) [mg/m2] | ED50 (Alopecurus japonicus [2]) [mg/m2] | Ratio (Alopecurus japonicus [3]) | IC50 (ACCase [4]) [nM] | Ratio [5] | IC50 (ACCase [6]) [nM]
1 | C#CCOC(=O)[C@@H](C)Oc1ccc(Oc2ncc(Cl)cc2F)cc1 [CLODINAFOP PROPARGYL] | 4.209 | 0.721 | 5.84 |  |  | 
2 | CCCCOC(=O)[C@H](C)Oc1ccc(Oc2ccc(C#N)cc2F)cc1 [CYHALOFOP-BUTYL] | 0.698 | 0.144 | 4.85 |  |  | 
3 | CCOC(=O)[C@@H](C)Oc1ccc(Oc2nc3ccc(Cl)cc3o2)cc1 [FENOXAPROP-P-ETHYL] | 1.289 | 0.114 | 11.35 |  |  | 
4 | CC(Oc1ccc(Oc2ncc(C(F)(F)F)cc2Cl)cc1)C(=O)O (stereo not given) [HALOXYFOP] |  |  |  | 28 | 10.8 | 2.6
5 | CCOC(=O)[C@@H](C)Oc1ccc(Oc2cnc3cc(Cl)ccc3n2)cc1 [QUIZALOFOP-P-ETHYL] | 15.283 | 0.426 | 35.87 |  |  | 
